From publication PMC12504763, “Antiproliferation, 3D-multicellular spheroid and VEGFR-2 inhibitory properties of spiroindolin-2-ones with phosphonate function” (Scientific Reports, 2025)
“And” between values parts separate entries of the source, which are not always exact repeats. Identical values can stand only once. Like-named read-outs stand apart in the source and are kept apart here.

Key:
[1] = system: A549 (lung) cancer cell line; parameters: method as in Reference 45; conditions: standard drug doxorubicin; ref Reference 45; cited from earlier work
VEGFR-2 [2] = target: T1, VEGFR-2 (Homo sapiens, UniProt P35968); test: cell-based; assay type: cell-based; conditions: for inhibition at 10 µM: HCT-116, HCT116; for VEGFR-2 pg/mL ± SEM HCT116: at 10 μM, control 317.80 ± 3.5
T1 construct: endogenous in cells; host or cells: HCT116, PaCa2, MCF7 (human cancer cell lines, ATCC origin)
T1 sequence (P35968 20-1356): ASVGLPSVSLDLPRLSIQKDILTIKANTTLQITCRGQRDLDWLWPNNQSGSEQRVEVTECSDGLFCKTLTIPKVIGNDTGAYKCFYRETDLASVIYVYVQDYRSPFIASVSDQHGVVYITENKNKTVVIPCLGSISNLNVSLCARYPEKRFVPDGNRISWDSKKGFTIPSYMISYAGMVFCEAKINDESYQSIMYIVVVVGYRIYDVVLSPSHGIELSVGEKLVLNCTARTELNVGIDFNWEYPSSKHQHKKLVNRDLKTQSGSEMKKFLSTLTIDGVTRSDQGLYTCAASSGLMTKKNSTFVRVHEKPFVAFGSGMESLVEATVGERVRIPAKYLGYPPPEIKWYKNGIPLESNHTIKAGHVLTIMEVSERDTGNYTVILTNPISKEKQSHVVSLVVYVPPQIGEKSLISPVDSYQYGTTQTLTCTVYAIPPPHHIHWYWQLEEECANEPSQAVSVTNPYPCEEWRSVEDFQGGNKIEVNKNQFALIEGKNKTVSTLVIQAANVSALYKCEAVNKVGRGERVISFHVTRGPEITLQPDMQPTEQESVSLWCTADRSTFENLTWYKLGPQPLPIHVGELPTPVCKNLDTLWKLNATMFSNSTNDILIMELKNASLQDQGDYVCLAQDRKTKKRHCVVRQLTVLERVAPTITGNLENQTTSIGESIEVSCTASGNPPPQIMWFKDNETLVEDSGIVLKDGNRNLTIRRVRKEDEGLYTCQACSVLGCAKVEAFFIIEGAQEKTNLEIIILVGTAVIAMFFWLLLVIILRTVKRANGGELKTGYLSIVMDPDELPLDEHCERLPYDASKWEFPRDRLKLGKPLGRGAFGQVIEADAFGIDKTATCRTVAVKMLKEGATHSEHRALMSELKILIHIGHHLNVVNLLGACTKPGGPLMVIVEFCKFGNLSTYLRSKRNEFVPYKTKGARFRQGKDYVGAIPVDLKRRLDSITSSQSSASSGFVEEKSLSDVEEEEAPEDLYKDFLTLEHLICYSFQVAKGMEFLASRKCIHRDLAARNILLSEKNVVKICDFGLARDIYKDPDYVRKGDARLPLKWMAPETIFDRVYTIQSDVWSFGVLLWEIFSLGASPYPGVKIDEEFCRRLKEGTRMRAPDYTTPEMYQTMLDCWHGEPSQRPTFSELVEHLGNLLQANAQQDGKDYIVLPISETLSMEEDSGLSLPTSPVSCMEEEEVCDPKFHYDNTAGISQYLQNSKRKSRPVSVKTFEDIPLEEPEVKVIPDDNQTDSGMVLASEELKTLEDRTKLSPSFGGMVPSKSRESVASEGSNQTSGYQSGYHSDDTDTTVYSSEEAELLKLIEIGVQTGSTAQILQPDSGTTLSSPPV

COX-2 = target: T2, COX-2 (Homo sapiens, UniProt P35354); test: biochemical; conditions: for inhibition at 10 µM: 3 replicates, read-out: % Inhibition of COX-2 ± SEM; for SI (selectivity index, COX-2/COX-1): at 10 μM
T2 construct: purchased BioVision incorporated USA K548–100
T2 sequence (P35354 18-604): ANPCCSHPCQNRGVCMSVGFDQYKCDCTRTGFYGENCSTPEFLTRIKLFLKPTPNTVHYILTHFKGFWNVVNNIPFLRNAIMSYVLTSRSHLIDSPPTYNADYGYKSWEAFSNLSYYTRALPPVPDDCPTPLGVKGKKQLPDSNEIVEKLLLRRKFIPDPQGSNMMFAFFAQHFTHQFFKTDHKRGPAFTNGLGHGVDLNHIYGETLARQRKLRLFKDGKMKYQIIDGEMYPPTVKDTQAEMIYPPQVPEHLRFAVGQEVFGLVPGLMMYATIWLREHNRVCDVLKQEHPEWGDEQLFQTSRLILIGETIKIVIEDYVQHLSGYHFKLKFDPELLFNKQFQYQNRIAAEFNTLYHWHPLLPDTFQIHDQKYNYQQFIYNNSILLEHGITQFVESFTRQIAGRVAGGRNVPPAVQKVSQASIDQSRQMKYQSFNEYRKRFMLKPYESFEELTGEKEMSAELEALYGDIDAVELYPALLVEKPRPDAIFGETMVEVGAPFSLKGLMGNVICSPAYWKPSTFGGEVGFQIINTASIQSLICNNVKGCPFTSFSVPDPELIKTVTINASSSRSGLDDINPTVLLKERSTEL

[3] = system: MCF7 (breast) cancer cell line; test: 2D-monolayer antiproliferation (MTT) against MCF7; assay type: cell-based, human; conditions: for IC50: Homo sapiens, MTT, 72 h incubation, MCF7 breast, read-out: IC50, μM ± SEM MCF7; for SI (selectivity index) MCF7: IC50 of RPE1 normal cell/IC50 of MCF7
TNF-α [4] = test: TNF-α inhibitory properties (ELISA), MCF7 cell lysate; assay type: cell-based, human; conditions: at 10 μM; for TNF-α pg/mL (± SEM) MCF7: control 83.26 ± 1.1
[5] = system: RPE1 (normal human immortalized retinal pigment epithelial cell line); test: cells; assay type: cell-based; conditions: Homo sapiens, RPE-1; MTT, normal RPE1 cell; read-out: IC50, μM ± SEM RPE1
HCT116 3D-spheroid = HCT116 3D-spheroid at 50 μM, relative to control
COX-1 = target: T3, COX-1 (Ovis aries, UniProt P05979); test: biochemical; conditions: 3 replicates, read-out: % Inhibition of COX-1 ± SEM
T3 construct: purchased BioVision incorporated USA K548–100
T3 sequence (P05979 25-600): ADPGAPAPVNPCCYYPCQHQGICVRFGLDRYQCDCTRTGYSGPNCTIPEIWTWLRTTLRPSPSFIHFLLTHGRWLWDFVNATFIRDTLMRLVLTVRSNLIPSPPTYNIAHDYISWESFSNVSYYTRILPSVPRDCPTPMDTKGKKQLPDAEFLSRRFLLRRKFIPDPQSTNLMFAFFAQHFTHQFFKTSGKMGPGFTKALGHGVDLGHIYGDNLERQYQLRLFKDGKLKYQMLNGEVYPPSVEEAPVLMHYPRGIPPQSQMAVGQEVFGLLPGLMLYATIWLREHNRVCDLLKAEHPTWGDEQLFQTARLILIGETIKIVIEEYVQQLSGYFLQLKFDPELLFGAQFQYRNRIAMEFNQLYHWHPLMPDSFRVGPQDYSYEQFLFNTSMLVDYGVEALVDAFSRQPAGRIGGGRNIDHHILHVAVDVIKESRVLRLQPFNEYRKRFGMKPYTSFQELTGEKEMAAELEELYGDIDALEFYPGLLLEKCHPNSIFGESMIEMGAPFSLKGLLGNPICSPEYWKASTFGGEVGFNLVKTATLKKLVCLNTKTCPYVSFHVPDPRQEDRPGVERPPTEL

TNF-α [6] = test: TNF-α inhibitory properties (ELISA), PaCa2 cell lysate; assay type: cell-based, human; conditions: at 10 μM; for TNF-α pg/mL (± SEM) PaCa2: control 111.8 ± 2.0
VEGFR-2 [7] = target: T1, VEGFR-2; test: cell-based; assay type: cell-based; conditions: for inhibition at 10 µM: MCF7; for VEGFR-2 pg/mL ± SEM MCF7: at 10 μM, control 258.70 ± 2.3
[8] = system: A549 (lung) cancer cell line; test: 2D-monolayer antiproliferation (MTT) against A549; assay type: cell-based, human; conditions: for IC50: Homo sapiens, MTT, 72 h incubation, A549 lung, read-out: IC50, μM ± SEM A549; for SI (selectivity index) A549: IC50 of RPE1 normal cell/IC50 of A549
VEGFR-2 [9] = target: T1, VEGFR-2; test: cell-based; assay type: cell-based; conditions: for inhibition at 10 µM: PaCa-2, PaCa2; for VEGFR-2 pg/mL ± SEM PaCa2: at 10 μM, control 326.80 ± 1.9
[10] = system: HCT116 (colon) cancer cell line; test: 2D-monolayer antiproliferation (MTT) against HCT116; assay type: cell-based, human; conditions: for IC50: Homo sapiens, HCT-116; for SI (selectivity index) HCT116: IC50 of RPE1 normal cell/IC50 of HCT116
CAM blood vessel network = test: Chick chorioallantoic membrane (CAM) anti-angiogenic assay; assay type: in vivo, chicken; conditions: 20 μL of 660 μM, 3 days; for Diameter of blood vessel (μm ± SEM): CAM test, control 459.7 ± 13.8
Protocol: CAM assay is an established xenograft technique for investigating the angiogenic effect due to the high resemblance of the human vascularized epithelium basement membrane with that of the chorioallantoic layer containing mainly type IV collagen[84]–[86].
Fig. 10 Images of light microscopy for anti-angiogenic evaluation of the tested compounds using CAM assay. […] The glass slide was placed on the surface of the CAM blood vessel network and left in an incubator at 37 °C for 3 days. The CAM blood vessel network was carefully cut and imaged under a light microscope (40 × magnification).
Fertilized white chicken eggs were incubated in a 37 °C incubator with constant humidity. On day 8, a small squared window was opened allowing the detachment of the growing CAM and shell. The opening was covered with an elastic bandage. […] The CAM was then sealed with a bandage and placed back in the incubator. CAMs were examined daily until day 12 (3 days), the vascularized membranes were then cut around the glass slide and fixed in 5% formalin. Images were taken with an Evos microscope at 40x and 100x magnification^9. Main blood vessel in the microscopic images of controls and samples were quantified by imageJ and analyzed for significant differences (n = 4).

[11] = system: PaCa2 (pancreatic) cancer cell line; test: 2D-monolayer antiproliferation (MTT) against PaCa2; assay type: cell-based, human; conditions: for 1/(observed property): 1/observed IC50 (μM), PaCa2; for IC50: Homo sapiens, PaCa-2, MTT, 72 h incubation, PaCa2 pancreatic, read-out: IC50, μM ± SEM PaCa2; for SI (selectivity index) PaCa2: IC50 of RPE1 normal cell/IC50 of PaCa2
TNF-α [12] = test: TNF-α inhibitory properties (ELISA), HCT116 cell lysate; assay type: cell-based, human; conditions: at 10 μM; for TNF-α pg/mL (± SEM) HCT116: control 95.74 ± 0.5
[13] = system: PaCa2 (pancreatic) cancer cell line; parameters: method as in Reference 30; conditions: standard drug sunitinib; ref Reference 30; cited from earlier work
[14] = MTT, 72 h incubation, HCT116 colon, read-out: IC50, μM ± SEM HCT116
[15] = log of observed IC50 (μM), HCT116, read-out: Log(observed property) (converted)

Compound: COc1cccc2c1C(=O)c1c(O)c3c(c(O)c1C2=O)C[C@@](O)(C(=O)CO)C[C@@H]3O[C@H]1C[C@H](N)[C@H](O)[C@H](C)O1 [Doxorubicin]
- IC50 [1]: 5.93 µM

Compound: CCOP(=O)(OCC)N1C/C(=C\c2cccs2)C(=O)C2(C1)C(c1cccs1)CN(C)C21C(=O)Nc2ccc(Cl)cc21 (centres unmarked) [Compound 17s, Diethyl (E)-[5-chloro-1′-methyl-2,4′′-dioxo-4′-(thiophen-2-yl)-5′′-(thiophen-2-ylmethylene)dispiro[indoline-3,2′-pyrrolidine-3′,3′′-piperidin]-1′′-yl]phosphonate]
- inhibition at 10 µM (VEGFR-2 [2]): 83.1%
- VEGFR-2 pg/mL ± SEM HCT116 (VEGFR-2 [2]): 53.80 ± 0.9 pg/mL
- inhibition at 10 µM (COX-2): 56.3 ± 2.3%
- SI (selectivity index, COX-2/COX-1) (COX-2): 0.83
- IC50 [3]: 4.64 ± 0.068 µM
- SI (selectivity index) MCF7 [3]: 2.2
- TNF-α % inhibition MCF7 (TNF-α [4]): 1.9%
- TNF-α pg/mL (± SEM) MCF7 (TNF-α [4]): 81.64 ± 3.7 pg/mL
- IC50 [5]: 10.2 ± 0.545 µM
- %CT (± SEM), percentage cytotoxicity (HCT116 3D-spheroid): 77.9% and 77.9 ± 1.2%
- inhibition at 10 µM (COX-1): 53.8 ± 2.8%
- TNF-α % inhibition PaCa2 (TNF-α [6]): 19.0%
- TNF-α pg/mL (± SEM) PaCa2 (TNF-α [6]): 90.6 ± 2.8 pg/mL
- inhibition at 10 µM (VEGFR-2 [7]): 81.6%
- VEGFR-2 pg/mL ± SEM MCF7 (VEGFR-2 [7]): 47.60 ± 0.6 pg/mL
- IC50 [8]: 8.1 ± 0.091 µM
- SI (selectivity index) A549 [8]: 1.3
- inhibition at 10 µM (VEGFR-2 [9]): 91.9%
- VEGFR-2 pg/mL ± SEM PaCa2 (VEGFR-2 [9]): 26.50 ± 0.5 pg/mL
- IC50 [10, 14]: 5.42 ± 0.288 µM
- IC50 [10, 15]: 5.42 µM
- SI (selectivity index) HCT116 [10]: 1.9
- % Inhibition of the blood vessels in CAM test (CAM blood vessel network): 86.7%
- Diameter of blood vessel (μm ± SEM) (CAM blood vessel network): 61.3 ± 4.3 μm
- 1/(observed property) [11]: 0.163
- IC50 [11]: 6.13 ± 0.131 µM
- SI (selectivity index) PaCa2 [11]: 1.7
- TNF-α % inhibition HCT116 (TNF-α [12]): 9.6%
- TNF-α pg/mL (± SEM) HCT116 (TNF-α [12]): 86.57 ± 2.0 pg/mL

Compound: CCN(CC)CCNC(=O)c1c(C)[nH]c(/C=C2\C(=O)Nc3ccc(F)cc32)c1C [Sunitinib, reference compound]
- IC50 [13]: 16.9 µM
- % Inhibition of the blood vessels in CAM test (CAM blood vessel network): 88.6%
- Diameter of blood vessel (μm ± SEM) (CAM blood vessel network): 52.3 ± 1.7 μm

Compound: CCOP(=O)(OCC)N1C/C(=C\c2ccc(OC)cc2)C(=O)C2(C1)C(c1ccc(OC)cc1)CN(C)C21C(=O)Nc2ccccc21 (centres unmarked) [Compound 17p, Diethyl (E)-[5′′-(4-methoxybenzylidene)-4′-(4-methoxyphenyl)-1′-methyl-2,4′′-dioxodispiro[indoline-3,2′-pyrrolidine-3′,3′′-piperidin]-1′′-yl]phosphonate]
- inhibition at 10 µM (VEGFR-2 [2]): 90%
- VEGFR-2 pg/mL ± SEM HCT116 (VEGFR-2 [2]): 31.80 ± 0.8 pg/mL
- inhibition at 10 µM (COX-2): 53.5 ± 2.1%
- SI (selectivity index, COX-2/COX-1) (COX-2): 1.10
- IC50 [3]: 5.43 ± 0.14 µM
- SI (selectivity index) MCF7 [3]: 2.6
- TNF-α % inhibition MCF7 (TNF-α [4]): 65.7%
- TNF-α pg/mL (± SEM) MCF7 (TNF-α [4]): 28.56 ± 2.9 pg/mL
- IC50 [5]: 14.2 ± 0.638 µM
- %CT (± SEM), percentage cytotoxicity (HCT116 3D-spheroid): 68.3% and 68.3 ± 0.6%
- inhibition at 10 µM (COX-1): 51.1 ± 2.7%
- TNF-α pg/mL (± SEM) PaCa2 (TNF-α [6]): 25.8 ± 1.8 pg/mL
- inhibition at 10 µM (VEGFR-2 [7]): 81.3%
- VEGFR-2 pg/mL ± SEM MCF7 (VEGFR-2 [7]): 48.30 ± 0.4 pg/mL
- IC50 [8]: 13 ± 0.284 µM
- SI (selectivity index) A549 [8]: 1.1
- inhibition at 10 µM (VEGFR-2 [9]): 93.3%
- VEGFR-2 pg/mL ± SEM PaCa2 (VEGFR-2 [9]): 21.76 ± 0.4 pg/mL
- IC50 [10, 14]: 5.51 ± 0.138 µM
- IC50 [10, 15]: 5.51 µM
- SI (selectivity index) HCT116 [10]: 2.6
- Diameter of blood vessel (μm ± SEM) (CAM blood vessel network): 79.3 ± 3.3 μm
- 1/(observed property) [11]: 0.1367
- IC50 [11]: 7.32 ± 0.226 µM
- SI (selectivity index) PaCa2 [11]: 1.9
- TNF-α pg/mL (± SEM) HCT116 (TNF-α [12]): 26.21 ± 1.3 pg/mL
